Measurements reported in US9981975B2, “Pyrrolotriazine compounds as tam inhibitors” (Incyte Corporation, priority 2016, dated 2018).

Molecular target: Tyro3 (Homo sapiens (Human), UniProt Q06418)
Test: TAM Enzymatic Assay (HTRF), Tyro3
Format: biochemical
Conditions: Tyro3, 60 min, room temperature
Description: The kinase assay buffer contained 50 mM HEPES, pH7.5, 10 mM MgCl2, 1 mM EGTA, 0.01% NP-40 and 2 mM DTT. 0.1 ul test compounds dissolved in DMSO were transferred from compound plates to white 384-well assay plates (Greiner […] plates). […] 4 ul enzyme solution (or assay buffer for the enzyme blank) was added to the appropriate wells in each plate, and then 4 ul/well substrate solution was added to initiate the reaction. The plate was protected from light and incubated at room temperature for 60 min. […] The plate was incubated for 1 h at room temperature, and HTRF (homogenous time resolved fluorescence) signal was measured on a PHERAstar FS plate reader (BMG labtech). Percentage of inhibition was calculated for each concentration and IC50 value was generated from curve fitting with GraphPad Prism software.

Sequence of Tyro3 (Q06418 41-890): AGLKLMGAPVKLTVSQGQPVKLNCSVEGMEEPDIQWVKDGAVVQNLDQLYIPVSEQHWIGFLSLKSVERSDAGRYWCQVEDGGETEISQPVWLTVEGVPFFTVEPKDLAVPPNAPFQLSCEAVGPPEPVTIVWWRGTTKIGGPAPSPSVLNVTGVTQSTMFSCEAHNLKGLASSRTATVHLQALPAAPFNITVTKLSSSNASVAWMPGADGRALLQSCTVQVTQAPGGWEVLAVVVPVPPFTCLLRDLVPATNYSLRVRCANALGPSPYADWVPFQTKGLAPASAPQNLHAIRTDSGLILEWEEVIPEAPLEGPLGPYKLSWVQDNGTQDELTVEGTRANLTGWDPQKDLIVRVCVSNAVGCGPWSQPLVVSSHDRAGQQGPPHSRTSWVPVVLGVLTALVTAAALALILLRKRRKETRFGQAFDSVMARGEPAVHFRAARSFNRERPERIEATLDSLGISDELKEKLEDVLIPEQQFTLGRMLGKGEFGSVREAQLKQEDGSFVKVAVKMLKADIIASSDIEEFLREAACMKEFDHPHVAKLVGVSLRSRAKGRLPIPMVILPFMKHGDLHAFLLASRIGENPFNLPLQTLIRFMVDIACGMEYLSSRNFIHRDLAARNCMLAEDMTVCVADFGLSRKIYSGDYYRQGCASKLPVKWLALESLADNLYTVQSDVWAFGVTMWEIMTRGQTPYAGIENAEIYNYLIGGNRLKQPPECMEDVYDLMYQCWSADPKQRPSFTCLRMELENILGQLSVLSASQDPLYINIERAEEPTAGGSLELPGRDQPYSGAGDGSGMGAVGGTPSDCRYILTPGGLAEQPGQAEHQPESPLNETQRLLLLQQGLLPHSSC

Compound	IC50 [nM]
COC(=O)N1CCC(c2cc(-c3ccc(NC(=O)c4cccn(-c5ccccc5)c4=O)cc3)c3c(N)ncnn23)CC1 [Example 36, Methyl 4-[4-amino-5-(4-{[(2-oxo-1-phenyl-1,2-dihydropyridin-3-yl)carbonyl]amino}phenyl)pyrrolo[2,1-f][1,2,4]triazin-7-yl]piperidine-1-carboxylate]	> 100
CC(C)n1cc(C(=O)Nc2ccc(-c3cc(C4CCN(C5CCN(C)C5=O)CC4)n4ncnc(N)c34)cc2)c(=O)n(-c2ccccc2)c1=O (racemic) [Example 82, N-(4-(4-Amino-7-(1-(1-methyl-2-oxopyrrolidin-3-yl)piperidin-4-yl)pyrrolo[1,2-f][1,2,4]triazin-5-yl)phenyl)-1-isopropyl-2,4-dioxo-3-phenyl-1,2,3,4-tetrahydropyrimidine-5-carboxamide]	10 to 100
CC(C)n1cc(C(=O)Nc2ccc(-c3cc(C(=O)N(C)C)n4ncnc(N)c34)cc2)c(=O)n(-c2cccc(F)c2)c1=O [Example 86, 4-Amino-5-(4-(3-(3-fluorophenyl)-1-isopropyl-2,4-dioxo-1,2,3,4-tetrahydropyrimidine-5-carboxamido)phenyl)-N,N-dimethylpyrrolo[2,1-f][1,2,4]triazine-7-carboxamide]	> 100
COc1ccn(-c2ccccc2)c(=O)c1C(=O)Nc1ccc(-c2c(Br)c(C3CCN(C(=O)C(C)C)CC3)n3ncnc(N)c23)cc1 [Example 100, N-(4-(4-Amino-6-bromo-7-(1-isobutyrylpiperidin-4-yl)pyrrolo[1,2-f][1,2,4]triazin-5-yl)phenyl)-4-methoxy-2-oxo-1-phenyl-1,2-dihydropyridine-3-carboxamide]	> 100
CC(C)C(=O)N1CCC(c2cc(-c3ccc(NC(=O)c4cn(C(C)C)c(=O)n(C5CCCCC5)c4=O)cc3)c3c(N)ncnn23)CC1 [Example 90, N-(4-(4-Amino-7-(1-isobutyrylpiperidin-4-yl)pyrrolo[2,1-f][1,2,4]triazin-5-yl)phenyl)-3-cyclohexyl-1-isopropyl-2,4-dioxo-1,2,3,4-tetrahydropyrimidine-5-carboxamide]	> 100
Nc1ncnn2c(C3CCOCC3)cc(-c3ccc(NC(=O)c4cccn(-c5ccccc5)c4=O)cc3)c12 [Example 13, N-{4-[4-Amino-7-(tetrahydro-2H-pyran-4-yl)pyrrolo[2,1-f][1,2,4]triazin-5-yl]phenyl}-2-oxo-1-phenyl-1,2-dihydropyridine-3-carboxamide]	> 100
CCN(C)C(=O)N1CCC(c2cc(-c3ccc(NC(=O)c4cccn(-c5ccc(F)cc5)c4=O)cc3)c3c(N)ncnn23)CC1 [Example 56, N-{4-[4-Amino-7-(1-{[ethyl(methyl)amino]carbonyl}piperidin-4-yl)pyrrolo[2,1-f][1,2,4]triazin-5-yl]phenyl}-1-(4-fluorophenyl)-2-oxo-1,2-dihydropyridine-3-carboxamide]	> 100
CCc1cc(-c2ccc(NC(=O)c3cccn([C@@H](CO)c4ccccc4)c3=O)cc2)c2c(N)ncnn12 [Example 2, N-[4-(4-Amino-7-ethylpyrrolo[2,1-f][1,2,4]triazin-5-yl)phenyl]-1-[(1R)-2-hydroxy-1-phenylethyl]-2-oxo-1,2-dihydropyridine-3-carboxamide]	> 100
Cc1cc(-c2ccc(NC(=O)c3cccn(-c4ccccc4)c3=O)cc2)c2c(N)ncnn12 [Example 8, N-[4-(4-Amino-7-methylpyrrolo[2,1-f][1,2,4]triazin-5-yl)phenyl]-2-oxo-1-phenyl-1,2-dihydropyridine-3-carboxamide]	> 100
CCc1cc(-c2ccc(NC(=O)c3cc4c(n(-c5ccc(F)cc5)c3=O)CCCC4=O)cc2)c2c(N)ncnn12 [Example 1, N-[4-(4-Amino-7-ethylpyrrolo[2,1-f][1,2,4]triazin-5-yl)phenyl]-1-(4-fluorophenyl)-2,5-dioxo-1,2,5,6,7,8-hexahydroquinoline-3-carboxamide]	> 100
